Data from US20090062267A1, “L-ALANINE DERIVATIVES AS a5beta1 ANTAGONISTS” (ASTRAZENECA AB, priority 2007, published 2009).

Target: recombinant human α5β1 (Homo sapiens, UniProt P05556+P08648)
Assay: In Vitro Binding Assay (a): inhibition of binding of α5β1 integrin to a fragment of human fibronectin (Fn9-10), Origen electrochemiluminescence
Conditions: geometric mean where tested more than once
Excerpt: The assay determined the ability of compounds to inhibit binding of α5β1 integrin to a cognate ligand, a fragment of human fibronectin. The assay used Origen technology (IGEN International) to measure the compound activity. Briefly, α5β1 integrin was coated onto epoxy-paramagnetic beads (Dynal Biotech UK, Bromborough, Wirral, CH62 3QL, UK, Catalogue No 140.11) and biotinylated-fibronectin ligand was coupled to strepatividin labeled Tag-NHS-Ester (BioVeris Corporation, Witney, Oxfordshire, OX28 4GE, UK, Catalogue No 110034). The ruthenium-labeled tag emits an electrochemiluminescence signal upon stimulation which is detected by the Origen reader. Thus, interaction of integrin and ligand causes association of bead and tag, and the resulting electrochemiluminescence signal reflects the level of integrin interaction with fibronectin.
20 μg of recombinant human α5β1 was coated onto 4×10(7) epoxy-paramagnetic beads according to manufacturers instructions at 4° C. for 24 hours. Integrin coating and corresponding activity was subsequently measured for each batch but typically, 25 ng of coated protein was used per assay well.
A DNA fragment encoding the domains 9-10 (amino-acids 1325-1509) of human fibronectin (Swiss-Prot Accession No. P02751) was isolated from cDNA libraries using standard molecular biology and PCR cloning techniques. The cDNA fragment was sub-cloned into a pT73.3 expression vector containing a GST-epitope tag (developed at AstraZeneca; Bagnall et al., Protein Expression and Purification, 2003, 27: 1-11). Following expression in E. coli, the expressed protein, termed Fn9-10, was purified using the GST-tag using standard purification techniques. The recombinant Fn9-10 was subsequently biotinylated using a EZ-link Sulfo-NHS-LC-Biotinylation kit (Perbio Science UK Ltd., Cramlington, Northumberland, NE23 1WA, UK, Catalogue No. 21335) and made to give a final concentration of approximately 1 mg/ml. Tag-NHS-Ester was labeled with streptavidin by incubation at room temperature following manufacturers instructions and buffer-exchanged into PBS to give a concentration of 0.5 mg/ml. Immediately prior to the assay, biotinylated-Fn9-10 and Streptavidin-labeled Tag were diluted in Assay Buffer to give a final concentrations of 0.6 ug/ml and 1.5 ug/ml respectively. The Fn9-10 and Tag solutions were then mixed together in equal volumes and incubated on ice for at least 30 minutes prior to the assay.
Aliquots (20 μl) of each compound dilution were placed into each well of a 384-well round bottomed polypropylene plate (Matrix Technologies, Wilmslow, Cheshire, SK9 3LP, Catalogue No. 4340 384).
For the assay, 25 ng (20 ul) of a5b1-bead suspension and 40 μl of the Fn9-10/Tag pre-incubated solution were added to each well containing 20 μl of compound or control solution. Assay plates were then incubated at room temperature for a minimum of 6 hours before being analysed on an Origen plate reader. The minimum value was subtracted from all values, and the signal was plotted against compound concentration to generate IC50 data.
The data in the above table was generated in an assay substantially as described above in relation to Binding Assay (a). Some of the compounds shown in the table were tested more than once in the assay. For those compounds the IC50 value shown is the geometric mean of the measured IC50 values.

Chain of recombinant human α5β1 (P08648 42-1049): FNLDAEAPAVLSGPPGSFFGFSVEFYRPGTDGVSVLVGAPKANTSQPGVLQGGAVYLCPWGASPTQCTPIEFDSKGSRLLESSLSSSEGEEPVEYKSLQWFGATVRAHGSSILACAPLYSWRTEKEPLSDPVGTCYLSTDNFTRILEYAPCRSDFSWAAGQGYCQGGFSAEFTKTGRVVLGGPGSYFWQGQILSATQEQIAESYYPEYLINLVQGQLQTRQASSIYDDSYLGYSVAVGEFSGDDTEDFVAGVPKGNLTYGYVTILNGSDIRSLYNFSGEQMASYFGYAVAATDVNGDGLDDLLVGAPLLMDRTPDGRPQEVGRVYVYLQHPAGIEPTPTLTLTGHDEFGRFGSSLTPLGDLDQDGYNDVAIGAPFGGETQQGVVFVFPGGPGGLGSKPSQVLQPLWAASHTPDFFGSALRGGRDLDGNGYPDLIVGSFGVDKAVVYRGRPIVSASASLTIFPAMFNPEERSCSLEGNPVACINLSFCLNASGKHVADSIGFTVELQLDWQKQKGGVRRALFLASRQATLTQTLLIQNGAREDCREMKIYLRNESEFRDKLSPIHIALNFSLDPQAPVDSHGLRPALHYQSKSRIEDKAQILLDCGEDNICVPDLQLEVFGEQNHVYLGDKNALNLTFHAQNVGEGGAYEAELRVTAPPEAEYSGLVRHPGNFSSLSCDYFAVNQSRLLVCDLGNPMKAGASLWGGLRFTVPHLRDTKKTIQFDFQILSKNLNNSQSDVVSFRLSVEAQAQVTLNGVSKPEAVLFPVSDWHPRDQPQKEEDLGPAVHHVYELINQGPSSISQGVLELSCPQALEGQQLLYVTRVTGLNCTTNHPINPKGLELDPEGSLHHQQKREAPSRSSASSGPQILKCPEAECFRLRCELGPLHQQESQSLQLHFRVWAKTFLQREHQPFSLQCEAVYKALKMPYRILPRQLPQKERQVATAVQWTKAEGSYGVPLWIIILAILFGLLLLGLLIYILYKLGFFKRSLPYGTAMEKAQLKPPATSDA
Chain of recombinant human α5β1 (P05556 21-798): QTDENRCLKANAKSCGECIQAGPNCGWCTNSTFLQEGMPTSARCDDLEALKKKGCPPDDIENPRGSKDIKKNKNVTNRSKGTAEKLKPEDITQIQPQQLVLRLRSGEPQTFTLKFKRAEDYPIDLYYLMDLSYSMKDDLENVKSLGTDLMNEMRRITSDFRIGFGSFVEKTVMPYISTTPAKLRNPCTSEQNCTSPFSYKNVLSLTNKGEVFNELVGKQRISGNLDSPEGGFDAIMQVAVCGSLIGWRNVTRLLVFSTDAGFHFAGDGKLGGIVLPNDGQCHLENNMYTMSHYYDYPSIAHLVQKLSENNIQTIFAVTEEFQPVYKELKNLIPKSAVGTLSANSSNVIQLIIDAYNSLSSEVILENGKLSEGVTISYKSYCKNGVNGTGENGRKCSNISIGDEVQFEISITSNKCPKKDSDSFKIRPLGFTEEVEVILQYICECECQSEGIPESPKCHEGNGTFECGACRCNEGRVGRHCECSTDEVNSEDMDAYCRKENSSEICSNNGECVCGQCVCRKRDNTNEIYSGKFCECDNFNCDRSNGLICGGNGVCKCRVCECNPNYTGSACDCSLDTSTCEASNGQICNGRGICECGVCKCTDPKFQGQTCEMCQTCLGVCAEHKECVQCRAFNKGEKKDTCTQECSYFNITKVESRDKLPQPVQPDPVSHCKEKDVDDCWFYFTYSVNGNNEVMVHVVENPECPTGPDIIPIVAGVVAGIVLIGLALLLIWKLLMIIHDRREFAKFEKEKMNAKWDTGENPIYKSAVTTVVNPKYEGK

| SMILES | IC50 |
| --- | --- |
| O=C(N[C@@H](Cc1ccc(OCCc2ccc3c(n2)NCCC3)cc1)C(=O)O)c1sccc1Cl [Example 5.2, N-[(3-chlorothiophen-2-yl)carbonyl]-O-[2-(5,6,7,8-tetrahydro-1,8-naphthyridin-2-yl)ethyl]-L-tyrosine] | 0.001 µM |
| CNc1cccc(CCOc2ccc(C[C@H](NC(=O)c3scnc3C)C(=O)O)cc2)n1 [Example 1.16, O-{2-[6-(methylamino)pyridin-2-yl]ethyl}-N-[(4-methyl-1,3-thiazol-5-yl)carbonyl]-L-tyrosine] | 0.024 µM |
| COc1cscc1C(=O)N[C@@H](Cc1ccc(OCCc2ccc3c(n2)NCCC3)cc1)C(=O)O [Example 5.1, N-[(4-methoxythiophen-3-yl)carbonyl]-O-[2-(5,6,7,8-tetrahydro-1,8-naphthyridin-2-yl)ethyl]-L-tyrosine] | 0.042 µM |
| O=C(N[C@@H](Cc1ccc(OCCc2ccc3c(n2)NCCC3)cn1)C(=O)O)c1sccc1Cl [Example 6, N-[(3-chlorothiophen-2-yl)carbonyl]-3-{5-[2-(5,6,7,8-tetrahydro-1,8-naphthyridin-2-yl)ethoxy]pyridin-2-yl}-L-alanine] | < 0.001 µM |
| CNc1cccc(CCOc2ccc(C[C@H](NC(=O)c3cc(C)cs3)C(=O)O)cc2)n1 [Example 1.27, O-{2-[6-(methylamino)pyridin-2-yl]ethyl}-N-[(4-methyl-2-thienyl)carbonyl]-L-tyrosine] | 0.05 µM |
| CNc1cccc(CCOc2ccc(C[C@H](NC(=O)c3ccoc3C)C(=O)O)cc2)n1 [Example 1.12, O-{2-[6-(methylamino)pyridin-2-yl]ethyl}-N-(2-methyl-3-furoyl)-L-tyrosine] | 0.021 µM |
| O=C(N[C@@H](Cc1ccc(CCCc2ccc3c(n2)NCCC3)cn1)C(=O)O)c1sccc1Cl [Example 8, N-[(3-chlorothiophen-2-yl)carbonyl]-3-{5-[3-(5,6,7,8-tetrahydro-1,8-naphthyridin-2-yl)propyl]pyridin-2-yl}-L-alanine] | 0.004 µM |
| CNc1cccc(CCOc2ccc(C[C@H](NC(=O)c3cc(Cl)sc3Cl)C(=O)O)cc2)n1 [Example 1.11, N-[(2,5-dichloro-3-thienyl)carbonyl]-O-{2-[6-(methylamino)pyridin-2-yl]ethyl}-L-tyrosine] | 0.015 µM |
| CCSc1ncccc1C(=O)N[C@@H](Cc1ccc(OCCc2cccc(NC)n2)cc1)C(=O)O [Example 2.3, N-{[2-(ethylthio)pyridin-3-yl]carbonyl}-O-{2-[6-(methylamino)pyridin-2-yl]ethyl}-L-tyrosine] | 0.031 µM |
| CNc1cccc(CCOc2ccc(C[C@H](NC(=O)c3c[nH]nc3C)C(=O)O)cc2)n1 [Example 1.15, O-{2-[6-(methylamino)pyridin-2-yl]ethyl}-N-[(3-methyl-1H-pyrazol-4-yl)carbonyl]-L-tyrosine] | 0.129 µM |
| CCc1cc(C(=O)N[C@@H](Cc2ccc(OCCc3cccc(NC)n3)cc2)C(=O)O)cs1 [Example 1.28, N-[(5-ethyl-3-thienyl)carbonyl]-O-{2-[6-(methylamino)pyridin-2-yl]ethyl}-L-tyrosine] | 0.075 µM |
| CNc1cccc(CCOc2ccc(C[C@H](NC(=O)c3sc(C)nc3C)C(=O)O)cc2)n1 [Example 1.5, N-[(2,4-dimethyl-1,3-thiazol-5-yl)carbonyl]-O-{2-[6-(methylamino)pyridin-2-yl]ethyl}-L-tyrosine] | 0.041 µM |
| CNc1cccc(CCOc2ccc(C[C@H](NC(=O)c3ccncc3Cl)C(=O)O)cc2)n1 [Example 2.1, N-(3-chloroisonicotinoyl)-O-{2-[6-(methylamino)pyridin-2-yl]ethyl}-L-tyrosine] | 0.007 µM |
| O=C(N[C@@H](Cc1ccc(OCCc2ccc3c(n2)NCCO3)cc1)C(=O)O)c1ccncc1Cl [Example 4.4, N-[(3-chloropyridin-4-yl)carbonyl]-O-[2-(3,4-dihydro-2H-pyrido[3,2-b][1,4]oxazin-6-yl)ethyl]-L-tyrosine] | 0.005 µM |
| CNc1cccc(CCOc2ccc(C[C@H](NC(=O)c3ccc(Cl)nc3Cl)C(=O)O)cc2)n1 [Example 2.4, N-[(2,6-dichloropyridin-3-yl)carbonyl]-O-{2-[6-(methylamino)pyridin-2-yl]ethyl}-L-tyrosine] | 0.039 µM |
| CNc1cccc(CCOc2ccc(C[C@H](NC(=O)c3c(Cl)c4ccccc4n3C)C(=O)O)cc2)n1 [Example 1.26, N-[(3-chloro-1-methyl-1H-indol-2-yl)carbonyl]-O-{2-[6-(methylamino)pyridin-2-yl]ethyl}-L-tyrosine] | 0.111 µM |
| CNc1cccc(CCOc2ccc(C[C@H](NC(=O)c3sccc3C)C(=O)O)cc2)n1 [Example 1.8, O-{2-[6-(methylamino)pyridin-2-yl]ethyl}-N-[(3-methyl-2-thienyl)carbonyl]-L-tyrosine] | 0.019 µM |
| CNc1cccc(CCOc2ccc(C[C@H](NC(=O)c3c(Cl)cncc3Cl)C(=O)O)cc2)n1 [Example 1.19, N-(3,5-dichloroisonicotinoyl)-O-{2-[6-(methylamino)pyridin-2-yl]ethyl}-L-tyrosine] | 0.001 µM |
| Cc1cnccc1C(=O)N[C@@H](Cc1ccc(OCCc2ccc3c(n2)NCCO3)cc1)C(=O)O [Example 4.5, O-[2-(3,4-dihydro-2H-pyrido[3,2-b][1,4]oxazin-6-yl)ethyl]-N-[(3-methylpyridin-4-yl)carbonyl]-L-tyrosine] | 0.004 µM |
| O=C(N[C@@H](Cc1ccc(OCCc2ccc3c(n2)NCCC3)nc1)C(=O)O)c1sccc1Cl [Example 9, N-[(3-chlorothiophen-2-yl)carbonyl]-3-{6-[2-(5,6,7,8-tetrahydro-1,8-naphthyridin-2-yl)ethoxy]pyridin-3-yl}-L-alanine] | 0.007 µM |
| CNc1cccc(CCOc2ccc(C[C@H](NC(=O)c3ccncc3C)C(=O)O)cc2)n1 [Example 1.21, O-{2-[6-(methylamino)pyridin-2-yl]ethyl}-N-(3-methylisonicotinoyl)-L-tyrosine] | 0.01 µM |
| O=C(N[C@@H](Cc1ccc(CCCc2ccc3c(n2)NCCC3)nc1)C(=O)O)c1sccc1Cl [Example 10, N-[(3-chloro-2-thienyl)carbonyl]-3-{6-[3-(5,6,7,8-tetrahydro-1,8-naphthyridin-2-yl)propyl]pyridin-3-yl}-L-alanine] | 0.0025 µM |
| Cc1noc(C)c1C(=O)N[C@@H](Cc1ccc(OCCc2ccc3c(n2)NCCO3)cc1)C(=O)O [Example 4.3, O-[2-(3,4-dihydro-2H-pyrido[3,2-b][1,4]oxazin-6-yl)ethyl]-N-[(3,5-dimethylisoxazol-4-yl)carbonyl]-L-tyrosine] | 0.001 µM |
| CNc1cccc(CCOc2ccc(C[C@H](NC(=O)c3ncc(C(F)(F)F)cc3Cl)C(=O)O)cc2)n1 [Example 1.25, N-{[3-chloro-5-(trifluoromethyl)pyridin-2-yl]carbonyl}-O-{2-[6-(methylamino)pyridin-2-yl]ethyl}-L-tyrosine] | 0.036 µM |
| CNc1cccc(CCOc2ccc(C[C@H](NC(=O)c3scc(C)c3Cl)C(=O)O)cc2)n1 [Example 1.17, N-[(3-chloro-4-methyl-2-thienyl)carbonyl]-O-{2-[6-(methylamino)pyridin-2-yl]ethyl}-L-tyrosine] | 0.089 µM |
| CNc1cccc(CCOc2ccc(C[C@H](NC(=O)c3cccnc3Cl)C(=O)O)cc2)n1 [Example 3.1, N-[(2-chloropyridin-3-yl)carbonyl]-O-{2-[6-(methylamino)pyridin-2-yl]ethyl}-L-tyrosine] | 0.02 µM |
| CNc1cccc(CCOc2ccc(C[C@H](NC(=O)c3sccc3Cl)C(=O)O)cc2)n1 [Example 1.1, N-[(3-chloro-2-thienyl)carbonyl]-O-{2-[6-(methylamino)pyridin-2-yl]ethyl}-L-tyrosine] | 0.012 µM |
| CCCc1cc(C(=O)N[C@@H](Cc2ccc(OCCc3cccc(NC)n3)cc2)C(=O)O)cs1 [Example 1.29, O-{2-[6-(methylamino)pyridin-2-yl]ethyl}-N-[(5-propyl-3-thienyl)carbonyl]-L-tyrosine] | 0.071 µM |
| CNc1cccc(CCOc2ccc(C[C@H](NC(=O)c3cccnc3C)C(=O)O)cc2)n1 [Example 2.6, O-{2-[6-(methylamino)pyridin-2-yl]ethyl}-N-[(2-methylpyridin-3-yl)carbonyl]-L-tyrosine] | 0.034 µM |
